The test has as its target T1, human RORgT (Homo sapiens, UniProt P51449).
T1 construct: expressed in transfected cells
T1 sequence (P51449 267-516): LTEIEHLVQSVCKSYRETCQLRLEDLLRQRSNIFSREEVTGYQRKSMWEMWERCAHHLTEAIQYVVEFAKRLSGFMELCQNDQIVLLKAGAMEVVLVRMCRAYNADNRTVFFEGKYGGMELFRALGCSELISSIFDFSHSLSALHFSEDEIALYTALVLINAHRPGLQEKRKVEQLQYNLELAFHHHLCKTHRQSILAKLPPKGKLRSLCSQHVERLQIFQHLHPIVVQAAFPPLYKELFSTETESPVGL
The experiment in a line: RORgT Gal4 Luciferase Reporter Gene Assay. Type of test: cell-based. The settings on record: engineered Jurkat cells overexpressing RORgT (LBD or full length) fused with Gal4 Luc reporter; 18 hours at 37° C.; luminescence. An outline of the steps: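 Jurkat cells expressing Gal4 Luc with either RORgT LBD (aa267-516) or full-length human RORgT, 10,000 cells/well, treated with compound (40 µM to 0.67 nM final, 3-fold dilutions) for 18 h at 37° C. Steady-Glo luminescence read; inhibition of constitutive activity as % signal-window reduction relative to a control compound.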
The term EC50 denotes the concentration needed to bring the measured effect to its halfway point. A low value points to greater potency. As for `CS(=O)(=O)CC(=O)N1CC[C@@]2(S(=O)(=O)c3ccc(F)cc3)c3ccc(OCc4cc(F)c(F)cc4Cl)cc3CC[C@@H]12` [Example 216, 1-[(3aR,9bR)-7-[(2-chloro-4,5-difluorophenyl)methoxy]-9b-(4-fluorobenzenesulfonyl)-1H,2H,3H,3aH,4H,5H,9bH-benzo[e]indol-3-yl]-2-methanesulfonylethan-1-one], the midpoint of the response, the EC50, lay at 0.266 µM. This lies in the sub-micromolar range.

The compound `CC(C)(C)OC(=O)N1CC[C@@]2(S(=O)(=O)c3ccc(F)cc3)c3ccc(Cc4ccccc4)cc3CC[C@@H]12` [Example 53, ert-butyl (3aR,9bR)-7-benzyl-9b-(4-fluorobenzenesulfonyl)-1H,2H,3H,3aH,4H,5H,9bH-benzo[e]indole-3-carboxylate] had an EC50 of 0.016 µM. On to `O=C(C1CCS(=O)(=O)CC1)N1CC[C@@]2(S(=O)(=O)c3ccccc3)c3ccc(OCc4c(F)cc(F)cc4Cl)cc3CC[C@@H]12` [Example 149, 4-[(3aR,9bR)-9b-(benzenesulfonyl)-7-[(2-chloro-4,6-difluorophenyl)methoxy]-1H,2H,3H,3aH,4H,5H,9bH-benzo[e]indole-3-carbonyl]-1λ^6-thiane-1,1-dione], for which the concentration giving a half-maximal response (EC50) stood at 0.0077 µM. For the compound `NC(=O)CN1CC[C@@]2(S(=O)(=O)c3ccccc3)c3ccc(OCc4c(Cl)cccc4Cl)cc3CC[C@@H]12` [Example 70, 2-[(3aR,9bR)-9b-(benzenesulfonyl)-7-[(2,6-dichlorophenyl)methoxy]-1H,2H,3H,3aH,4H,5H,9bH-benzo[e]indol-3-yl]acetamide], a half-maximal effect (EC50) was put at 0.153 µM.

Compound `Cc1ccccc1COc1ccc2c(c1)CC[C@H]1N(C(=O)C3CCS(=O)(=O)CC3)CC[C@@]21S(=O)(=O)c1ccccc1` [Example 124, 4-[(3aR,9bR)-9b-(benzenesulfonyl)-7-[(2-methylphenyl)methoxy]-1H,2H,3H,3aH,4H,5H,9bH-benzo[e]indole-3-carbonyl]-1λ^6-thiane-1,1-dione] showed an EC50 of 0.034 µM.

Regarding `CC1(CN2CC[C@@]3(S(=O)(=O)c4ccc(F)cc4)c4ccc(OCc5c(F)cccc5C(F)(F)F)cc4CC[C@@H]23)CCNCC1` [Example 45, 4-{ [(3aR,9bR)-7-{ [2-fluoro-6-(trifluoromethyl)phenyl]methoxy} -9b-(4-fluorobenzenesulfonyl)-1H,2H,3H,3aH,4H,5H,9bH-benzo[e]indol-3-yl]methyl}-4-methylpiperidine], a half-maximal response (EC50) required 0.306 µM. `O=C(N1CC[C@@]2(S(=O)(=O)c3ccccc3)c3ccc(OCc4c(Cl)cccc4Cl)cc3CC[C@@H]12)C1(O)CCOCC1` [Example 96, 4-[(3aR,9bR)-9b-(benzenesulfonyl)-7-[(2,6-dichlorophenyl)methoxy]-1H,2H,3H,3aH,4H,5H,9bH-benzo[e]indole-3-carbonyl]oxan-4-ol] came in with an EC50 of 0.013 µM. In the case of `CS(=O)(=O)NCC(=O)N1CC[C@@]2(S(=O)(=O)c3ccccc3)c3ccc(OCc4c(F)cccc4Cl)cc3CC[C@@H]12` [Example 145, N-{2-[(3aR,9bR)-9b-(benzenesulfonyl)-7-[(2-chloro-6-fluorophenyl)methoxy]-1H,2H,3H,3aH,4H,5H,9bH-benzo[e]indol-3-yl]-2-oxoethyl} methanesulfonamide], the response was half-maximal at 0.614 µM (EC50).

`O=C(C1CCS(=O)(=O)C1)N1CC[C@@]2(S(=O)(=O)c3ccc(F)cc3)c3ccc(OCc4cc(Cl)ccc4Cl)cc3CC[C@@H]12` (stereo partly drawn) [Example 199, 3-[(3aR,9bR)-7-[(2,5-dichlorophenyl)methoxy]-9b-(4-fluorobenzenesulfonyl)-1H,2H,3H,3aH,4H,5H,9bH-benzo[e]indole-3-carbonyl]-1λ^6-thiolane-1,1-dione] gave a concentration giving a half-maximal response (EC50) of 0.0087 µM. Against the preceding compound, the EC50 is about 71-fold lower. Under `NC(=O)N1CCC(C(=O)N2CC[C@@]3(S(=O)(=O)c4ccc(F)cc4)c4ccc(OCc5c(Cl)cccc5Cl)cc4CC[C@@H]23)CC1` [Example 172, 4-[(3aR,9bR)-7-[(2,6-dichlorophenyl)methoxy]-9b-(4-fluorobenzenesulfonyl)-1H,2H,3H,3aH,4H,5H,9bH-benzo[e]indole-3-carbonyl]piperidine-1-carboxamide] stands 0.019 µM; under `NS(=O)(=O)CC(=O)N1CC[C@@]2(S(=O)(=O)c3ccc(F)cc3)c3ccc(OCc4c(F)cccc4C(F)(F)F)cc3CC[C@@H]12` [Example 185, 2-[(3aR,9bR)-7-{[2-fluoro-6-(trifluoromethyl)phenyl]methoxy}-9b-(4-fluorobenzenesulfonyl)-1H,2H,3H,3aH,4H,5H,9bH-benzo[e]indol-3-yl]-2-oxoethane-1-sulfonamide], 0.09 µM. Regarding `COC(=O)[C@H]1CC[C@H](C(=O)N2CC[C@@]3(S(=O)(=O)c4ccc(F)cc4)c4ccc(OCc5cc(F)ccc5Cl)cc4CC[C@@H]23)CC1` [Example 176, methyl (1r,4r)-4-[(3aR,9bR)-7-[(2-chloro-5-fluorophenyl)methoxy]-9b-(4-fluorobenzenesulfonyl)-1H,2H,3H,3aH,4H,5H,9bH-benzo[e]indole-3-carbonyl]cyclohexane-1-carboxylate], the concentration giving a half-maximal response (EC50) stood at 0.056 µM.

As to `NC(=O)N1CCC(C(=O)N2CC[C@@]3(S(=O)(=O)c4ccccc4)c4ccc(OCc5c(Cl)cccc5Cl)cc4CC[C@@H]23)CC1` [Example 62, 4-[(3aR,9bR)-9b-(benzenesulfonyl)-7-[(2,6-dichlorophenyl)methoxy]-1H,2H,3H,3aH,4H,5H,9bH-benzo[e]indole-3-carbonyl]piperidine-1-carboxamide], the midpoint of the response, the EC50, lay at 0.015 µM. In the case of `CS(=O)(=O)N1CCC(CCC(=O)N2CC[C@@]3(S(=O)(=O)c4ccccc4)c4ccc(OCc5c(Cl)cccc5Cl)cc4CC[C@@H]23)CC1` [Example 103, 1-[(3aR,9bR)-9b-(benzenesulfonyl)-7-[(2,6-dichlorophenyl)methoxy]-1H,2H,3H,3aH,4H,5H,9bH-benzo[e]indol-3-yl]-3-(1-methanesulfonylpiperidin-4-yl)propan-1-one], a half-maximal response (EC50) required 0.259 µM.

The compound `O=C(C1CCS(=O)(=O)CC1)N1CC[C@@]2(S(=O)(=O)c3ccccc3)c3ccc(OCc4ccc(F)cc4Cl)cc3CC[C@@H]12` [Example 134, 4-[(3aR,9bR)-9b-(benzenesulfonyl)-7-[(2-chloro-4-fluorophenyl)methoxy]-1H,2H,3H,3aH,4H,5H,9bH-benzo[e]indole-3-carbonyl]-1λ^6-thiane-1,1-dione] came in with a 50% effective concentration (EC50) of 0.022 µM.

Compound `O=C1CC[C@H](C(=O)N2CC[C@@]3(S(=O)(=O)c4ccccc4)c4ccc(OCc5c(F)cccc5Cl)cc4CC[C@@H]23)N1` [Example 143, (5R)-5-[(3aR,9bR)-9b-(benzenesulfonyl)-7-[(2-chloro-6-fluorophenyl)methoxy]-1H,2H,3H,3aH,4H,5H,9bH-benzo[e]indole-3-carbonyl]pyrrolidin-2-one] yielded a concentration giving a half-maximal response (EC50) of 0.195 µM. This EC50 is about 8.9-fold higher than that of the compound before. Under `Cc1ccccc1Cc1ccc2c(c1)CC[C@H]1N(C(=O)C3CCS(=O)(=O)CC3)CC[C@@]21S(=O)(=O)c1ccc(F)cc1` [Example 44, 4-[(3aR,9bR)-9b-(4-fluorobenzenesulfonyl)-7-[(2-methylphenyl)methyl]-1H,2H,3H,3aH,4H,5H,9bH-benzo[e]indole-3-carbonyl]-1λ^6-thiane-1,1-dione] stands 0.0019 µM. For `CS(=O)(=O)N1CCC(C(=O)N2CC[C@@]3(S(=O)(=O)c4ccc(F)cc4)c4ccc(OCc5cc(F)ccc5Cl)cc4CC[C@@H]23)CC1` [Example 177, 4-[(3aR,9bR)-7-[(2-chloro-5-fluorophenyl)methoxy]-9b-(4-fluorobenzenesulfonyl)-1H,2H,3H,3aH,4H,5H,9bH-benzo[e]indole-3-carbonyl]-1-methanesulfonylpiperidine], the EC50 amounted to 0.018 µM.

For `O=C(CN1CCS(=O)(=O)CC1)N1CC[C@@]2(S(=O)(=O)c3ccc(F)cc3)c3ccc(OCc4c(Cl)cccc4Cl)cc3CC[C@@H]12` [Example 173, 4-{2-[(3aR,9bR)-7-[(2,6-dichlorophenyl)methoxy]-9b-(4-fluorobenzenesulfonyl)-1H,2H,3H,3aH,4H,5H,9bH-benzo[e]indol-3-yl]-2-oxoethyl}-1λ^6-thiomorpholine-1,1-dione], a half-maximal effect (EC50) was put at 0.014 µM. `NS(=O)(=O)CC(=O)N1CC[C@@]2(S(=O)(=O)c3ccc(F)cc3)c3ccc(OCc4c(Cl)cccc4Cl)cc3CC[C@@H]12` [Example 122, 2-[(3aR,9bR)-7-[(2,6-dichlorophenyl)methoxy]-9b-(4-fluorobenzenesulfonyl)-1H,2H,3H,3aH,4H,5H,9bH-benzo[e]indol-3-yl]-2-oxoethane-1-sulfonamide] showed an EC50 of 0.127 µM. Compared with the last compound, the EC50 is about 9.1-fold higher.

With `CC(=O)N1CCC(C(=O)N2CC[C@@]3(S(=O)(=O)c4ccccc4)c4ccc(OCc5c(Cl)cccc5Cl)cc4CC[C@@H]23)CC1` [Example 57, 1-{4-[(3aR,9bR)-9b-(benzenesulfonyl)-7-[(2,6-dichlorophenyl)methoxy]-1H,2H,3H,3aH,4H,5H,9bH-benzo[e]indole-3-carbonyl]piperidin-1-yl}ethan-1-one], the EC50 came out at 0.013 µM. This EC50 is about 9.8-fold lower than that of the compound before. With `O=C(C1CCS(=O)(=O)CC1)N1CC[C@@]2(S(=O)(=O)c3ccccc3)c3ccc(OCc4ccccc4Cl)cc3CC[C@@H]12` [Example 127, 4-[(3aR,9bR)-9b-(benzenesulfonyl)-7-[(2-chlorophenyl)methoxy]-1H,2H,3H,3aH,4H,5H,9bH-benzo[e]indole-3-carbonyl]-1λ^6-thiane-1,1-dione], the response was half-maximal at 0.012 µM (EC50). The EC50 values of the last two compounds are within 1.5-fold of each other.

In turn, `CC(C)S(=O)(=O)CC(=O)N1CC[C@@]2(S(=O)(=O)c3ccccc3)c3ccc(OCc4c(Cl)cccc4Cl)cc3CC[C@@H]12` [Example 102, 1-[(3aR,9bR)-9b-(benzenesulfonyl)-7-[(2,6-dichlorophenyl)methoxy]-1H,2H,3H,3aH,4H,5H,9bH-benzo[e]indol-3-yl]-2-(propane-2-sulfonyl)ethan-1-one] showed an EC50 of 0.62 µM. Compared with the last compound, the EC50 is about 52-fold higher.

These data come from patent publication US20230295087A1, “AGONISTS OF ROR GAMMAt” (BRISTOL-MYERS SQUIBB COMPANY, priority 2019, published 2023).
